As usually defined, the Ki is a measure of affinity in units of concentration, obtained from inhibition or displacement.

In the first test the target is T1, cloned human CCR8 receptor stably expressed in L1.2 cells (Homo sapiens, UniProt P51685).
T1 construct: expressed in transfected cells
T1 sequence (P51685 whole entry): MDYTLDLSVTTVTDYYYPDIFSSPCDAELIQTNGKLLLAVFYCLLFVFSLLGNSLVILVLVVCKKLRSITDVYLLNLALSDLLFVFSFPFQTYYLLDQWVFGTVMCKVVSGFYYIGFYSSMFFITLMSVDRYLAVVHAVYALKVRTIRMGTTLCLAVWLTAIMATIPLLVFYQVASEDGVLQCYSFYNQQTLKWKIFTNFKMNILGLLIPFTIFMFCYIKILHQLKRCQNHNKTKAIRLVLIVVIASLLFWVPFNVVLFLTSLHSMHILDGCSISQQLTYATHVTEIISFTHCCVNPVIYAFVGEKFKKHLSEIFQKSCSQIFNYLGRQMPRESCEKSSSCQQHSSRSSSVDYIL
The experiment in a line: whole cell binding screen: inhibition of biotinylated human I309 binding to CCR8 (FMAT 8100 HTS). The conditions noted are these: Ki of compounds to inhibit I-309 binding to CCR8, L1.2/hCCR8 cells, biotinylated human I-309, 10 point concentration response starting at 10 μM. The method in brief:
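L1.2 murine pre-B cells stably expressing human CCR8 (4.0×10^5 cells/mL) in HBSS/HEPES/fatty-acid-free BSA/azide buffer were mixed with biotinylated human I309 and compounds for 0.5 h, read by FMAT fluorescence. 10-point curves from 10 μM final; percent inhibition normalized to no-inhibitor and 100 nM unlabeled I309 controls.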
The molecule `COc1ccc(NS(=O)(=O)c2ccc(N3C(=O)c4ccccc4C3=O)c3ccccc23)cc1` [Compound A-2, 4-(1,3-Dioxo-1,3-dihydro-isoindol-2-yl)-naphthalene-1-sulfonic acid (4-methoxyphenyl)-amide] returned a Ki of less than 30000 nM.

In the case of `O=C(Nc1ccc(S(=O)(=O)NCc2ccccc2)c2ccccc12)c1ccccc1` [Compound A-3, N-(4-Benzylsulfamoyl-naphthalen-1-yl)-benzamide], the Ki was less than 500 nM.

Consider `O=C(Nc1ccc(S(=O)(=O)Nc2ccccc2)c2ccccc12)c1ccccc1` [Compound A-7, N-(4-Phenylsulfamoyl-naphthalen-1-yl)-benzamide], for which the Ki was less than 1000 nM.

As to `O=C(Nc1ccc(S(=O)(=O)NC2CCCCC2)c2ccccc12)c1ccccc1` [Compound A-10, N-(4-Cyclohexylsulfamoyl-naphthalen-1-yl)-benzamide], the Ki is less than 1000 nM.

Staying with this test, now noted: L1.2/hCCR8 cells, biotinylated human I-309, 10 point concentration response starting at 10 μM; read-out: Ki of compounds to inhibit I-309 binding to CCR8.
Turning to `CCOC(=O)N1CCCC(NS(=O)(=O)c2ccc(NC(=O)c3ccccc3C)c3c2CCCC3)C1` (racemic) [Compound E-31, (±)-3-[4-(2-Methyl-benzoylamino)-5,6,7,8-tetrahydro-naphthalene-1-sulfonylamino]-piperidine-1-carboxylic acid ethyl ester], the Ki was less than 500 nM.

Regarding `Cc1ccccc1C(=O)Nc1ccc(S(=O)(=O)NC2CCN(C(=O)N(C)C)C2)c2c1CCCC2` (racemic) [Compound E-32, (±)-3-[4-(2-Methyl-benzoylamino)-5,6,7,8-tetrahydro-naphthalene-1-sulfonylamino]-pyrrolidine-1-carboxylic acid dimethylamide], the Ki was less than 500 nM.

As for `CCOC(=O)N1CCC(NS(=O)(=O)c2ccc(NC(=O)c3ccccc3C)c3c2CCCC3)C1` (racemic) [Compound E-33, (±)-3-[4-(2-Methyl-benzoylamino)-5,6,7,8-tetrahydro-naphthalene-1-sulfonylamino]-pyrrolidine-1-carboxylic acid ethyl ester], the Ki was less than 500 nM.

Regarding `CCOC(=O)N1CCC(NS(=O)(=O)c2cccc3c(C(=O)NC4CCCCC4C)cccc23)CC1` (racemic) [Compound H-24, (±)-4-[5-(2-Methyl-cyclohexylcarbamoyl)-naphthalene-1-sulfonylamino]-piperidine-1-carboxylic acid ethyl ester], the Ki is less than 500 nM.

On to `CCCC(=O)N1CCC(NS(=O)(=O)c2cccc3c(C(=O)NC4CCCCC4C)cccc23)CC1` (racemic) [Compound H-29, (±)-5-(1-Butyryl-piperidin-4-ylsulfamoyl)-naphthalene-1-carboxylic acid (2-methyl-cyclohexyl)-amide], for which the Ki is less than 500 nM.

For `CCOC(=O)N1CCC(NS(=O)(=O)c2cccc3c(C(=O)NC4CCCC(C)C4C)cccc23)CC1` (racemic) [Compound H-30, (±)-4-[5-(2,3-Dimethyl-cyclohexylcarbamoyl)-naphthalene-1-sulfonylamino]-piperidine-1-carboxylic acid ethyl ester], the Ki was less than 500 nM.

With `CCCC(=O)N1CCC(NS(=O)(=O)c2cccc3c(C(=O)NC4CCCC(C)C4C)cccc23)CC1` (racemic) [Compound H-31, (±)-5-(1-Butyryl-piperidin-4-ylsulfamoyl)-naphthalene-1-carboxylic acid (2,3-dimethyl-cyclohexyl)-amide], the Ki was less than 500 nM.

Take `CC1CCCCC1NC(=O)c1cccc2c(S(=O)(=O)NC3CCN(C(=O)N(C)C)CC3)cccc12` (racemic) [Compound H-33, (±)-4-[5-(2-Methyl-cyclohexylcarbamoyl)-naphthalene-1-sulfonylamino]-piperidine-1-carboxylic acid dimethylamide]: the Ki was less than 500 nM.

On to `CCOC(=O)N1CC[C@H](NS(=O)(=O)c2cccc3c(C(=O)Nc4ccccc4C)cccc23)[C@@H](C)C1` (racemic) [Compound H-40, (±)-trans-3-Methyl-4-(5-o-tolylcarbamoyl-naphthalene-1-sulfonylamino)-piperidine-1-carboxylic acid ethyl ester], for which the Ki is less than 500 nM.

As for `Cc1ccccc1C(=O)Nc1ccc(S(=O)(=O)NC2CCN(C(=O)OC(C)(C)C)C2)c2c1CCC2` (racemic) [Compound H-68, (±)-3-[7-(2-Methyl-benzoylandno)-indane-4-sulfonylamino]-pyrrolidine-1-carboxylic acid tert-butyl ester], the inhibitory constant (Ki) is less than 500 nM.

In the case of `CCCC(=O)N1CCC(NS(=O)(=O)c2ccc(NC(=O)c3ccccc3C)c3c2CCC3)C1` (racemic) [Compound H-71, (±)-N-[7-(1-Butyryl-pyrrolidin-3-ylsulfamoyl)-indan-4-yl]-2-methyl-benzamide], the Ki is less than 500 nM.

Regarding `CCOC(=O)N1CCC(NS(=O)(=O)c2ccc(NC(=O)c3ccccc3C)c3c2CCC3)C1` (racemic) [Compound H-72, (±)-3-[7-(2-Methyl-benzoylamino)-indane-4-sulfonylamino]-pyrrolidine-1-carboxylic acid ethyl eter], the Ki is less than 500 nM.

On to `Cc1ccccc1C(=O)Nc1ccc(S(=O)(=O)NC2CCN(C(=O)N(C)C)C2)c2c1CCC2` (racemic) [Compound H-73, (±)-3-[7-(2-Methyl-benzoylamino)-indane-4-sulfonylamino]-pyrrolidine-1-carboxylic acid dimethylamide], for which the Ki was less than 1000 nM.

As to `Cc1ccccc1C(=O)Nc1ccc(S(=O)(=O)N[C@H]2CCN(Cc3ccccc3)C[C@H]2C)c2c1CCC2` (racemic) [Compound H-74, (±)-cis-N-[7-(1-Benzyl-3-methyl-piperidin-4-ylsulfamoyl)-indan-4-yl]-2-methyl-benzamide], the Ki was less than 1000 nM.

For the molecule `Cc1ccccc1C(=O)Nc1ccc(S(=O)(=O)N[C@@H]2CCN(Cc3ccccc3)C[C@H]2C)c2c1CCC2` (racemic) [Compound H-75, (±)-trans-N-[7-(1-Benzyl-3-methyl-piperidin-4-ylsulfamoyl)-indan-4-yl]-2-methyl-benzamide], the Ki is less than 1000 nM.

`Cc1ccccc1C(=O)Nc1cccc2c(S(=O)(=O)N[C@H]3CCN(C(=O)CN(C)C)C[C@H]3C)cccc12` (racemic) [Compound K-1, (±)-(cis)-N-{5-[1-(2-Dimethylamino-acetyl)-3-methyl-piperidin-4-ylsulfamoyl]-naphthalen-1-yl}-2-methyl-benzamide]: the Ki is less than 500 nM.

`CCOC(=O)N1CC[C@@H](NS(=O)(=O)c2ccc(NC(=O)c3ccccc3C)c3ccccc23)[C@@H](C)C1` (single isomer, unassigned) [Compound C-138, cis-3-Methyl-4-[4-(2-methyl-benzoylamino)-naphthalene-1-sulfonylamino]-piperidine-1-carboxylic acid ethyl ester]: the Ki was less than 1000 nM.

`CCCC(=O)N1CC[C@@H](NS(=O)(=O)c2ccc(NC(=O)c3ccccc3C)c3ccccc23)[C@@H](C)C1` (single isomer, unassigned) [Compound C-140, cis-N-[4-(1-butyryl-3-methyl-piperidin-4-ylsulfamoyl)-naphthalen-1-yl]-2-methyl-benzamiide]: the Ki was less than 500 nM.

As for `CCCC(=O)N1CC[C@@H](NS(=O)(=O)c2ccc(NC(=O)c3ccccc3C)c3ccccc23)[C@@H](C)C1` (single isomer, unassigned) [Compound C-141, cis-N-[4-(1-butyryl-3-methyl-piperidin-4-ylsuffamoyl)-naphthalen-1-yl]-2-methyl-benzamide], the Ki was less than 1000 nM.

`Cc1ccccc1C(=O)Nc1ccc(S(=O)(=O)N[C@H]2CCN(C(=O)C3CCCN3)C[C@H]2C)c2cccnc12` (stereo in doubt) [Compound J-38, (3R, 4S)-2-Methyl-N-{5-[3-methyl-1-((R)pyrrolidine-2-carbonyl)-piperidin-4-ylsulfamoyl]-quinolin-8-yl}-benzamide]: the Ki is less than 500 nM.

As to `Cc1ccccc1C(=O)Nc1ccc(S(=O)(=O)N[C@H]2CCN(C(=O)C(C)N)C[C@H]2C)c2cccnc12` (stereo in doubt) [Compound J-39, (3R, 4S)-N-{5-[1-(2-(R)-Amino-propionyl)-3-methyl-piperidin-4-ylsulfamoyl]-quinolin-8-yl}-2-methyl-benzamide], the Ki is less than 500 nM.

On to `COc1cccc(NS(=O)(=O)c2ccc(NC(=O)c3ccccc3)c3ccccc23)c1` [Compound A-1, N-[4-(3-Methoxy-phenylsulfamoyl)-naphthalen-1-yl]-benzamide], for which the Ki is less than 500 nM.

On to `CN(C)CCNS(=O)(=O)c1ccc(NC(=O)c2ccccc2)c2ccccc12` [Compound A-9, N-[4-(2-Dimethylamino-ethylsulfamoyl)-naphthalen-1-yl]-benzamide], for which the Ki was less than 30000 nM.

`CC(C)NS(=O)(=O)c1ccc(NC(=O)c2ccccc2)c2ccccc12` [Compound A-11, N-(4-Isopropylsulfamoyl-naphthalen-1-yl)-benzamide]: the Ki was less than 30000 nM.

Take `O=C(Nc1ccc(S(=O)(=O)NCc2ccncc2)c2ccccc12)c1ccccc1` [Compound A-13, N-{4-[(Pyridin-4-ylmethyl)-sulfamoyl]-naphthalen-1-yl}-benzamide]: the Ki is less than 30000 nM.

`O=C(Nc1ccc(S(=O)(=O)Nc2ccncc2)c2ccccc12)c1ccccc1` [Compound A-14, N-[4-(Pyridin-4-ylsulfamoyl)-naphthalen-1-yl]-benzamide]: the Ki was less than 500 nM.

Regarding `O=C(Nc1ccc(S(=O)(=O)Nc2cccnc2)c2ccccc12)c1ccccc1` [Compound A-16, N-[4-(Pyridin-3-ylsulfamoyl)-naphthalen-1-yl]-benzamide], the Ki was less than 30000 nM.

Consider `CCOC(=O)N1CCC(NS(=O)(=O)c2ccc(N3C(=O)c4ccccc4C3=O)c3ccccc23)CC1` [Compound A-18, 4-[4-(1,3-Dioxo-1,3-dihydro-isoindol-2-yl)-naphthalene-1-sulfonylamino]-piperidine-1-carboxylic acid ethyl ester], for which the Ki was less than 500 nM.
